Source: US6348483B1, “Use of derivatives of methylene-bis-oxazolidine and compositions obtained thereby” (Air Liquide Sante (International), priority 1998, dated 2002)
≈ marks a conversion by molar mass, not a printed value.

Assays:
Format in all cases: cell-based
Bacteria suspension = experiment: Boko test in water-diluted cutting fluids, bacteria suspension
Procedure: (§1) In separate batches, in each case 100 ml of the water-diluted cutting fluid to be preserved were admixed with various concentrations of the preservatives to be examined. The growth control used was in each case an unpreserved sample. Two days after the incorporation of the preservatives, the test batches were infected for the first time using 1 ml of an inoculating solution. The inoculating solution used was a suspension of the germs listed below (cultivated on nutrient media and then adapted to water-diluted cutting fluids). […] [table] The test batches were subsequently inoculated two times a week and plated onto agar plates two times per week, the first smear being carried out immediately prior to the new inoculation. The microbial growth on the smears was assessed after incubation at 25° C. for three days. […] The preservative effect of the individual product concentrations was assessed in a semiquantitative method by the colonization of the individual smears using the classification from − to +to +++. Growth was differentiated according to bacteria, yeasts and moulds. The test was usually carried out for twelve inoculation cycles or interrupted after repeated +++growth. The cutting fluids Shell Dromus BX or Almasol EP from Castrol or Rondocor Kompakt from Consulta were examined as 4% strength by weight emulsions in tap water from the city of Norderstedt. Inoculation was carried out using a suspension of bacteria or fungi or a mixed suspension of bacteria and fungi.

Fungi suspension = experiment: Boko test in water-diluted cutting fluids, fungi suspension
Procedure: as §1

Fusarium oxysporum = experiment: Serial dilution test according to DGHM (MIC); settings: aqueous 2% by weight strength solution in fully deionized water; unit assumed
Text: (§2) Solutions of in each case 2% strength by weight in fully deionized water were examined against selected bacteria and/or yeasts and/or fungi and/or algae using the serial dilution test according to DGHM [German Society for Hygiene and Microbiology]. MIC values of the aqueous 2% by weight strength solutions: […]

E. coli = experiment: Serial dilution test according to DGHM (MIC); settings: aqueous 2% by weight strength solution in fully deionized water; unit assumed
Text: as §2

Cand. albicans = experiment: Serial dilution test according to DGHM (MIC); settings: aqueous 2% by weight strength solution in fully deionized water; unit assumed
Text: as §2

Rhodotorula mucilaginosa = experiment: Serial dilution test according to DGHM (MIC); settings: aqueous 2% by weight strength solution in fully deionized water; unit assumed
Text: as §2

Chlorella fusca = experiment: Serial dilution test according to DGHM (MIC); settings: aqueous 2% by weight strength solution in fully deionized water; unit assumed
Text: as §2

Penicillium funiculosum = experiment: Serial dilution test according to DGHM (MIC); settings: aqueous 2% by weight strength solution in fully deionized water; unit assumed
Text: as §2

Pseudomonas aeruginosa = experiment: Serial dilution test according to DGHM (MIC); settings: aqueous 2% by weight strength solution in fully deionized water; unit assumed
Text: as §2

Asperg. niger = experiment: Serial dilution test according to DGHM (MIC); settings: aqueous 2% by weight strength solution in fully deionized water; unit assumed
Text: as §2

Alternaria alternata = experiment: Serial dilution test according to DGHM (MIC); settings: aqueous 2% by weight strength solution in fully deionized water; unit assumed
Text: as §2

[1] = test system: Mixed suspension of bacteria and fungi; experiment: Boko test in water-diluted cutting fluids, mixed suspension
Procedure: as §1

[2] = test system: Penicillium funiculosum (PF); experiment: Fungicidal finish (SM 022) of pure acrylate house paint; settings: for Fungicidal finish, colonization rating PF: without stress due to leaching
Procedure: In separate batches, the test concentrations of the active compounds/products were incorporated into the house paint, and the fungicidal and/or algistatic finish was determined using the stated test methods.
Incorporation and testing were carried out according to the methods SM 022 and SM 023 below.
This laboratory method was used to determine the resistance of house coatings to fungal attack. For the method, house coatings on standardized paper were used as test substrate, and Aspergillus niger (ATCC 6275) and Penicillium funiculosum (ATCC 36839) were used as test fungi. The experiments were carried out in Petri dishes on dextrose nutrient medium.
50 g of the material to be finished were, in separate batches, mixed with various concentrations of the fungicide to be examined and homogenized for 3-5 min using a basket stirrer.
Paper carrier materials having the dimensions 90×270 mm (Schleicher & Schüll No. 2589 B/X 24078) were coated with the test material. The paint and/or render samples were coated to a wet-layer thickness of 250 μm by knife coating. […] In the case of renders, the layer thickness depended, as in practice, on the particle size. The coated carrier materials, hereinbelow referred to as test bodies, were subsequently dried in a horizontal position for five days.
[…] The cross section of the container for the watering in the direction of flow was 1000±500 cm^2.
From the pretreated test bodies, sample bodies having a diameter of 5 cm were punched out and sterilized in a Co^60 source using at least 10 kGy.
The Sabouraud dextrose agar, which had solidified in the Petri dish, was inoculated with 0.2 ml of spore suspension (10^7 spores/ml) and plated out using a sterile Drigalski spatula or an offset sterile glass rod.
The pretreated sample bodies were then evenly placed onto the inoculated surface of the nutrient medium using a pair of tweezers, making sure that the entire surface of the sample body was in contact with the surface of the nutrient medium. The sample was subsequently incubated at 30±2° C. for three weeks. For other test germs, the incubation temperature had to be adapted to achieve optimum growth.
After one, two and three weeks, the sample bodies were examined for fungal growth. Evaluation was carried out visually or—if this was required to exclude foreign infections—using a magnifying glass. If the extent of the colonization by foreign organisms observed considerably interfered with the evaluation, the experiment could not be evaluated and was repeated. The evaluation of the samples was based on the following evaluation scale:
00—entire plate free from colonization*
0—zone formation (no colonization around the sample)*
(0)—fungal colonization up to the sample*
1—only the sample edge is colonized*
2—the sample is colonized from the edge inwards (less than 25%)
3—the sample surface is colonized by individual colonies (25-75%)
4—the sample surface is colonized extensively (75% and more, but not the entire surface)
5—the sample surface is colonized completely (100%)
*Note: Samples evaluated as 00, 0, (0) and 1 can be referred to as “being effectively finished against fungal growth”.

[3] = Cutting fluid Almasol EP, use concentration 0.05% by weight
[4] = Cutting fluid Almasol EP, use concentration 0.10% by weight
[5] = Cutting fluid Almasol EP, use concentration 0.15% by weight
[6] = Cutting fluid Rondocor Kompakt, use concentration 0.05% by weight
[7] = Cutting fluid Rondocor Kompakt, use concentration 0.10% by weight
[8] = Cutting fluid Rondocor Kompakt, use concentration 0.15% by weight
[9] = Cutting fluid Shell Dromus BX, use concentration 0.05% by weight
[10] = Cutting fluid Shell Dromus BX, use concentration 0.10% by weight
[11] = Cutting fluid Shell Dromus BX, use concentration 0.15% by weight

MIC value FO (Fusarium oxysporum): 1.56 µg/mL (≈ 8.38 µM)
MIC value EC (E. coli): 6.25 µg/mL (≈ 33.6 µM)
MIC value CA (Cand. albicans): > 6.25 µg/mL
MIC value RM (Rhodotorula mucilaginosa): 3.12 µg/mL (≈ 16.8 µM)
MIC value CF (Chlorella fusca): 0.39 µg/mL (≈ 2.09 µM)
MIC value PF (Penicillium funiculosum): 1.56 µg/mL (≈ 8.38 µM)
MIC value PS (Pseudomonas aeruginosa): 6.25 µg/mL (≈ 33.6 µM)
MIC value AN (Asperg. niger): 6.25 µg/mL (≈ 33.6 µM)
MIC value AL (Alternaria alternata): 6.25 µg/mL (≈ 33.6 µM)
SMILES: CC1CN(CN2COC(C)C2)CO1 (stereo not shown) [Mar 71, 3,3′-methylenebis-(5-methyloxazolidine)]
Number of inoculation cycles passed on inoculation with Bacteria suspension (Bacteria suspension; [3]): >12
Number of inoculation cycles passed on inoculation with Bacteria suspension (Bacteria suspension; [4]): >12
Number of inoculation cycles passed on inoculation with Bacteria suspension (Bacteria suspension; [5]): >12
Number of inoculation cycles passed on inoculation with Bacteria suspension (Bacteria suspension; [6]): >12
Number of inoculation cycles passed on inoculation with Bacteria suspension (Bacteria suspension; [7]): >12
Number of inoculation cycles passed on inoculation with Bacteria suspension (Bacteria suspension; [8]): >12
Number of inoculation cycles passed on inoculation with Bacteria suspension (Bacteria suspension; [9]): >12
Number of inoculation cycles passed on inoculation with Bacteria suspension (Bacteria suspension; [10]): >12
Number of inoculation cycles passed on inoculation with Bacteria suspension (Bacteria suspension; [11]): >12
Number of inoculation cycles passed on inoculation with Fungi suspension (Fungi suspension; [3]): >12
Number of inoculation cycles passed on inoculation with Fungi suspension (Fungi suspension; [4]): >12
Number of inoculation cycles passed on inoculation with Fungi suspension (Fungi suspension; [5]): >12
Number of inoculation cycles passed on inoculation with Fungi suspension (Fungi suspension; [6]): >12
Number of inoculation cycles passed on inoculation with Fungi suspension (Fungi suspension; [7]): >12
Number of inoculation cycles passed on inoculation with Fungi suspension (Fungi suspension; [8]): >12
Number of inoculation cycles passed on inoculation with Fungi suspension (Fungi suspension; [9]): >12
Number of inoculation cycles passed on inoculation with Fungi suspension (Fungi suspension; [10]): >12
Number of inoculation cycles passed on inoculation with Fungi suspension (Fungi suspension; [11]): >12
Number of inoculation cycles passed on inoculation with Mixed suspension [1, 3]: 11
Number of inoculation cycles passed on inoculation with Mixed suspension [1, 4]: >12
Number of inoculation cycles passed on inoculation with Mixed suspension [1, 5]: 11
Number of inoculation cycles passed on inoculation with Mixed suspension [1, 6]: >12
Number of inoculation cycles passed on inoculation with Mixed suspension [1, 7]: >12
Number of inoculation cycles passed on inoculation with Mixed suspension [1, 8]: >12
Number of inoculation cycles passed on inoculation with Mixed suspension [1, 9]: 4
Number of inoculation cycles passed on inoculation with Mixed suspension [1, 10]: 11
Number of inoculation cycles passed on inoculation with Mixed suspension [1, 11]: >12
Fungicidal activity (in words), PF ([2]; house paint test): no fungicidal activity in practice
Fungicidal finish, colonization rating PF ([2]; use conc. 0.5% W/W, 1. week): 5 (the sample surface is colonized completely (100%))
Fungicidal finish, colonization rating PF ([2]; use conc. 0.5% W/W, 2. week): 5 (the sample surface is colonized completely (100%))
Fungicidal finish, colonization rating PF ([2]; use conc. 1.0% W/W, 1. week): 5 (the sample surface is colonized completely (100%))
Fungicidal finish, colonization rating PF ([2]; use conc. 1.0% W/W, 2. week): 5 (the sample surface is colonized completely (100%))
Fungicidal finish, colonization rating PF ([2]; use conc. 2.0% W/W, 1. week): 3 (the sample surface is colonized by individual colonies (25%-75%))
Fungicidal finish, colonization rating PF ([2]; use conc. 2.0% W/W, 2. week): 4 (the sample surface is colonized extensively (75% and more, but not the entire surface))
